Assay [1] has as its target T1, human Nav1.7 (Homo sapiens, UniProt Q15858).
T1 construct: expressed in transfected cells
Description: PatchXpress automated patch-clamp, inactivated state block of Nav1.7. The format is cell-based. The following applies: channels stably expressed in HEK 293 cells, 22° C., read-out: potency for the Nav 1.7 sodium ion channel (as measured by PatchXpress). The protocol:
(§1) Compounds were tested on human Nav1.7 and Nav1.5 channels stably expressed in HEK 293 cells. Activity toward Nav 1.7 and Nav 1.5 channels was assessed using the following assay methodology.
(§2) Sodium Current Measurements on the PatchXpress 7000®:
(§3) To measure inactivated state block of sodium channels, test compounds were characterized in an automated PatchXpress® assay (Molecular Devices) using a double-pulse protocol on human Nav1.7 and Nav1.5 channels stably expressed in HEK 293 cells. Cells were held at a potential 20 mV negative to V0.5 inact. An 8000 ms pre-pulse 7 mV positive to V0.5 inact was given followed by a hyperpolarizing 2 ms pulse to −120 mV and a 20 ms test pulse to −20 mV. Protocol was applied to cells in the absence, presence of compound and after washout. The temperature of PatchXpress instruments was maintained at 22° C. The following recording solutions were used. Internal solution (mM): 30 CsCl, 5 HEPES, 10 EGTA, 120 CsF, 5 NaF, 2 MgCl2. External solution (mM): 120 NMDG, 40 NaCl, 1 KCl, 0.5 MgCl2, 5 HEPES, 2.7 CaCl2.
(§4) For all electrophysiology experiments, offline analysis was used to correct for current rundown and to determine percent inhibition as a function of drug concentration. IC50 values were determined by fitting to the Hill equation.
In general terms: Patch clamp records ionic current or voltage across a cell membrane.

Assay [2] has as its target T2, human Nav1.5 (Homo sapiens, UniProt Q14524).
T2 construct: expressed in transfected cells
Description: PatchXpress automated patch-clamp, inactivated state block of Nav1.5 (selectivity). It is filed as cell-based. The following applies: determined by PatchXpress measurement, HEK 293 cells. The protocol: as §1, §2, §3, §4

T1 sequence (Q15858 whole entry): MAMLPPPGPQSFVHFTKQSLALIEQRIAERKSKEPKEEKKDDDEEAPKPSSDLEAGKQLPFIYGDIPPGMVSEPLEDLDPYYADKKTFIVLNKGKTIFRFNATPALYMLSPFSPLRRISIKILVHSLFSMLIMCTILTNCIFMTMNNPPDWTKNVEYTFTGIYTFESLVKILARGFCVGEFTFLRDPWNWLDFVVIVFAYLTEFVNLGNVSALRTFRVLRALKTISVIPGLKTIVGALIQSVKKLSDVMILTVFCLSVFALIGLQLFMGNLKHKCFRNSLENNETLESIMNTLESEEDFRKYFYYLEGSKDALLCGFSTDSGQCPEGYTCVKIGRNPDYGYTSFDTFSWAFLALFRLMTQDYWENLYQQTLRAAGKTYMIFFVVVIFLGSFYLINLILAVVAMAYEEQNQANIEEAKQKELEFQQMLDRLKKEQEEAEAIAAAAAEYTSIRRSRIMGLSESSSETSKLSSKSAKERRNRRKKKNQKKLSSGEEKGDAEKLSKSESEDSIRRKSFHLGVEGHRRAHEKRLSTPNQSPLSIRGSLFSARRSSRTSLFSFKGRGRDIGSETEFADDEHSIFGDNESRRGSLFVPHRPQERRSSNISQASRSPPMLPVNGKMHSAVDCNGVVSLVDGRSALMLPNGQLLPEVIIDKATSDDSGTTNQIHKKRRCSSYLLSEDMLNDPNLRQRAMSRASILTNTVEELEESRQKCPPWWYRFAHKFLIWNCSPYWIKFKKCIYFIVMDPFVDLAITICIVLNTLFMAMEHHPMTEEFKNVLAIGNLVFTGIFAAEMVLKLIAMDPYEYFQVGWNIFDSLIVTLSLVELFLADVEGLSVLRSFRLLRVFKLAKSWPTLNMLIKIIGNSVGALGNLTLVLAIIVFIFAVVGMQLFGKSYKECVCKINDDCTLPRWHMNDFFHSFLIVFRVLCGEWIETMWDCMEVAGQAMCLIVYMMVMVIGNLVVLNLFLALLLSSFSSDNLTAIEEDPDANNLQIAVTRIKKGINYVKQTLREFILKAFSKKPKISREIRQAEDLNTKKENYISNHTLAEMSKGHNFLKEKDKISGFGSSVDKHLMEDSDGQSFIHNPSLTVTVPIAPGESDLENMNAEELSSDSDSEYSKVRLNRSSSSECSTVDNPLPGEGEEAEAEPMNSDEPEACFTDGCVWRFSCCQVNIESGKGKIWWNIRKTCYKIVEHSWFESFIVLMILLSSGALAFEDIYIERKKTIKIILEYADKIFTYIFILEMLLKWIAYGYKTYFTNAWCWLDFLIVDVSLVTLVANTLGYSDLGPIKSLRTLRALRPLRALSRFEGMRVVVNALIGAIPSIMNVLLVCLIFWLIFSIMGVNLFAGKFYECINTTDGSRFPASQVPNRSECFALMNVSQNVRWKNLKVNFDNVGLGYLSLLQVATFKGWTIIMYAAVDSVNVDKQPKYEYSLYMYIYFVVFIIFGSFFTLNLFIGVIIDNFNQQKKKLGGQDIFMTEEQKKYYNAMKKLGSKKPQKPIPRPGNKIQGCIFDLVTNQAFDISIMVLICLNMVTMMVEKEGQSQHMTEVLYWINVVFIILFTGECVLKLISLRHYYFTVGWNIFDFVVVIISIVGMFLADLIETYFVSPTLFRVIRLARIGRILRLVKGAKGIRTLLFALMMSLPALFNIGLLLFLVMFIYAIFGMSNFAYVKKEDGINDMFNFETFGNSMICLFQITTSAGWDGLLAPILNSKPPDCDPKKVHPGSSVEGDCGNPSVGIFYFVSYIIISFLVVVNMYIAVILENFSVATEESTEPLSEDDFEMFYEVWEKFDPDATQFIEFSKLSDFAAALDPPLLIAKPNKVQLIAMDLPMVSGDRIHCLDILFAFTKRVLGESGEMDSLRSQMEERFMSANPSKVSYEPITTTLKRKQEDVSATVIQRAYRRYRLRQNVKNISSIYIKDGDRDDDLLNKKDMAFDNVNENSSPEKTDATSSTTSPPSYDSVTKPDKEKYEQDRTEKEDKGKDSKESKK
T2 sequence (Q14524 whole entry): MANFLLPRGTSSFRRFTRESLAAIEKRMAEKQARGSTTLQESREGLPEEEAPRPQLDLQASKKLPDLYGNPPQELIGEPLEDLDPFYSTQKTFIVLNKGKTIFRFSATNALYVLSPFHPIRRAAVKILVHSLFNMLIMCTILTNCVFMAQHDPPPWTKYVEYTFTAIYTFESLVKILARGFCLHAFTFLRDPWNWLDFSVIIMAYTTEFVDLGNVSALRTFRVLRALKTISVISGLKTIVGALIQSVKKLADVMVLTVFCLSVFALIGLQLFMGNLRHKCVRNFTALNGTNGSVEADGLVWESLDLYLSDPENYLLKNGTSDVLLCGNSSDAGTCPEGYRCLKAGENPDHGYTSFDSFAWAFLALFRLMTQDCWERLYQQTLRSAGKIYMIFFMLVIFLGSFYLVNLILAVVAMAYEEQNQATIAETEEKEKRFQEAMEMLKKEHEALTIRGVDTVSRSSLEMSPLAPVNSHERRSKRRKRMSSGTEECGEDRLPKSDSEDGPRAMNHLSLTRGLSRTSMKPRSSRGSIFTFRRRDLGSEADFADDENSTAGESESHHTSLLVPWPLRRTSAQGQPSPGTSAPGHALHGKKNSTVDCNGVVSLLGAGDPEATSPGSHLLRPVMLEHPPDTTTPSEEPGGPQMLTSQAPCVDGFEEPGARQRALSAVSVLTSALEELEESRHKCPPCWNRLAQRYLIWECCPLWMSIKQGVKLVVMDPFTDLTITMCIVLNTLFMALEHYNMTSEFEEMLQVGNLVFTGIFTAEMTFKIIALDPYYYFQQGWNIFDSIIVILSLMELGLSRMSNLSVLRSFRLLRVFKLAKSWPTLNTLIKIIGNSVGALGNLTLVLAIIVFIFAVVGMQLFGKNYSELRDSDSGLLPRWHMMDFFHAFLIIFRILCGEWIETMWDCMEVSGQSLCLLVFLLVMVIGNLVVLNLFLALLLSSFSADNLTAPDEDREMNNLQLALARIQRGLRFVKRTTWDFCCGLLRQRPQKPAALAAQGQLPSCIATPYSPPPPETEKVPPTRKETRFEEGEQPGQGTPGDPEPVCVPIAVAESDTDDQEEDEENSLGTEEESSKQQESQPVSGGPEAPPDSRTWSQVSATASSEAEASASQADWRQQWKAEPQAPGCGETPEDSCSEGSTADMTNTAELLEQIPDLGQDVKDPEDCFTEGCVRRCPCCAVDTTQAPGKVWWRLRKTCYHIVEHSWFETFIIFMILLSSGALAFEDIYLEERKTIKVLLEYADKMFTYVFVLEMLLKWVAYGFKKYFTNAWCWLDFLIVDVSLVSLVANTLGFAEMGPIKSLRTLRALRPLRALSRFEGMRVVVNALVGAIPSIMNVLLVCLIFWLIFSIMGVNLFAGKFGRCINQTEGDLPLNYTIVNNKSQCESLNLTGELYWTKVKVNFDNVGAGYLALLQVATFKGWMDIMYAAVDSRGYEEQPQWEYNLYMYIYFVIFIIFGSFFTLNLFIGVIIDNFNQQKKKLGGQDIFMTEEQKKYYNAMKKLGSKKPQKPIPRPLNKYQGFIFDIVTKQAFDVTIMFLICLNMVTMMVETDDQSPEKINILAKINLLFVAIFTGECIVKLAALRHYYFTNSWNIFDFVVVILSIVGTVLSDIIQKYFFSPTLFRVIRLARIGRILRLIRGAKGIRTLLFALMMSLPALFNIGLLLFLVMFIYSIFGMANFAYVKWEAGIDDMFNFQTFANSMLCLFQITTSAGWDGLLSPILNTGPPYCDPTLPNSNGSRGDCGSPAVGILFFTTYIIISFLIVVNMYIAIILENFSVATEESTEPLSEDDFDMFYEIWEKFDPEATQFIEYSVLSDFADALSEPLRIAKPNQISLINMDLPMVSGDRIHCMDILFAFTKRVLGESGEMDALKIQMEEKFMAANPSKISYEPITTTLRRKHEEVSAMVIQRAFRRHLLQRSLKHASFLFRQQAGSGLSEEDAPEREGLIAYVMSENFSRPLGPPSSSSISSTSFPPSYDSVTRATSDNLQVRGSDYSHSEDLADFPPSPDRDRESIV

In the case of `CC1CN2CCCC2(CNc2ccc(S(=O)(=O)Nc3nccs3)cc2C#N)C1` (racemic) [Ex4-8, 3-cyano-4-{[((2S,7aR and 2R,7aS)-2-methyltetrahydro-1H-pyrrolizin-7a(5H)-yl)methyl]amino}-N-(1,3-thiazol-2-yl)benzenesulfonamide], the IC50 in assay [1] is 27 nM. The “ratio of Nav1.7 potency:Nav 1.5 potency” value in assay [2] was determined as 1109.

Consider `N#Cc1cc(S(=O)(=O)Nc2nccs2)ccc1NCC12CCCN1CC(F)(F)C2` (racemic) [Ex6-6, (R and S)-3-cyano-4-{[(2,2-difluorotetrahydro-1H-pyrrolizin-7a(5H)-yl)methyl]amino}-N-(1,3-thiazol-2-yl)benzenesulfonamide], for which the IC50 in assay [1] was found to be 472 nM. In addition, the “ratio of Nav1.7 potency:Nav 1.5 potency” value in assay [2] amounted to 64.

As for `O=S(=O)(Nc1ncc(Cl)s1)c1cc(Cl)c(NCC23CCCN2CC(F)(F)C3)cc1F` (racemic) [Ex6-8, (R and S)-5-chloro-N-(5-chloro-1,3-thiazol-2-yl)-4-{[(2,2-difluorotetrahydro-1H-pyrrolizin-7a(5H)-yl)methyl]amino}-2-fluorobenzenesulfonamide], the IC50 in assay [1] turned out to be 1300 nM. For the same molecule, in assay [2], the “ratio of Nav1.7 potency:Nav 1.5 potency” value is given as 19.

As to `Cc1csc(NS(=O)(=O)c2cc(Cl)c(NCC34CCCN3CC(C)(C)C4)cc2F)n1` (racemic) [Ex8-25, (R and S)-5-chloro-4-(((2,2-dimethylhexahydro-1H-pyrrolizin-7a-yl)methyl)amino)-2-fluoro-N-(4-methylthiazol-2-yl)benzenesulfonamide], the IC50 in assay [1] was 32 nM. Also, the “ratio of Nav1.7 potency:Nav 1.5 potency” value in assay [2] was found to be 947.

In the case of `O=S(=O)(Nc1nccs1)c1cc(Cl)c(NCC23CCCN2C(CF)CC3)cc1F` (racemic) [Ex14-10, 5-chloro-2-fluoro-4-((((3S,7aS and 3R,7aR)-3-(fluoromethyl)hexahydro-1H-pyrrolizin-7a-yl)methyl)amino)-N-(thiazol-2-yl)benzenesulfonamide], the IC50 in assay [1] turned out to be 59 nM. For the same molecule, in assay [2], the “ratio of Nav1.7 potency:Nav 1.5 potency” value is reported as 509.

As to `CC(Nc1cc(F)c(S(=O)(=O)Nc2nccs2)cc1Cl)C12CCCN1CCC2` (single isomer, unassigned) [Ex5-8, 5-chloro-2-fluoro-4-{[(R or S)1-(tetrahydro-1H-pyrrolizin-7a(5H)-yl)ethyl]amino}-N-(1,3-thiazol-2-yl)benzenesulfonamide], the IC50 in assay [1] worked out at 52 nM. Also, in assay [2], the “ratio of Nav1.7 potency:Nav 1.5 potency” value was found to be 407.

Turning to `CC(Nc1cc(F)c(S(=O)(=O)Nc2nccs2)cc1Cl)C12CCCN1CCC2` (single isomer, unassigned) [Ex5-9, 5-chloro-2-fluoro-4-{[(1S or R)-1-(tetrahydro-1H-pyrrolizin-7a(5H)-yl)ethyl]amino}-N-(1,3-thiazol-2-yl)benzenesulfonamide], the IC50 in assay [1] was found to be 1090 nM. Moreover, the “ratio of Nav1.7 potency:Nav 1.5 potency” value in assay [2] turned out to be 26.

In the case of `CC1(C)CN2CCCC2(CNc2cc(F)c(S(=O)(=O)Nc3ncc(Cl)s3)cc2Cl)C1` (single isomer, unassigned) [Ex8-19-A, (R or S) 5-chloro-N-(5-chlorothiazol-2-yl)-4-(((2,2-dimethylhexahydro-1H-pyrrolizin-7a-yl)methyl)amino)-2-fluorobenzenesulfonamide], the IC50 in assay [1] was found to be 14 nM. Also, the “ratio of Nav1.7 potency:Nav 1.5 potency” value in assay [2] is reported as 812.

Turning to `CC1(C)CN2CCCC2(CNc2cc(F)c(S(=O)(=O)Nc3ncc(Cl)s3)cc2Cl)C1` (single isomer, unassigned) [Ex8-19-B, (S or R) 5-chloro-N-(5-chlorothiazol-2-yl)-4-(((2,2-dimethylhexahydro-1H-pyrrolizin-7a-yl)methyl)amino)-2-fluorobenzenesulfonamide], the IC50 in assay [1] turned out to be 135 nM. In addition, in assay [2], the “ratio of Nav1.7 potency:Nav 1.5 potency” value is on record as 265.

As for `CC1(C)CN2CCCC2(CNc2cc(F)c(S(=O)(=O)Nc3ncc(F)s3)cc2Cl)C1` (single isomer, unassigned) [Ex8-21-A, (R or S) 5-chloro-4-(((2,2-dimethylhexahydro-1H-pyrrolizin-7a-yl)methyl)amino)-2-fluoro-N-(5-fluorothiazol-2-yl)benzenesulfonamide], the IC50 in assay [1] was 35 nM. The “ratio of Nav1.7 potency:Nav 1.5 potency” value in assay [2] is given as 851.

As for `CC1(C)CN2CCCC2(CNc2cc(F)c(S(=O)(=O)Nc3ncc(F)s3)cc2Cl)C1` (single isomer, unassigned) [Ex8-21-B, (S or R) 5-chloro-4-(((2,2-dimethylhexahydro-1H-pyrrolizin-7a-yl)methyl)-amino)-2-fluoro-N-(5-fluorothiazol-2-yl)-benzenesulfonamide], the IC50 in assay [1] stood at 23 nM. Besides, the “ratio of Nav1.7 potency:Nav 1.5 potency” value in assay [2] is listed as 1290.

With `CC1(C)CN2CCCC2(CNc2ccc(S(=O)(=O)Nc3nccs3)cc2C(F)(F)F)C1` (single isomer, unassigned) [Ex8-23-A, (R or S) 4-(((2,2-dimethylhexahydro-1H-pyrrolizin-7a-yl)methyl)-amino)-N-(thiazol-2-yl)-3-(trifluoromethyl)benzene-sulfonamide], the IC50 in assay [1] came out at 172 nM. Besides, the “ratio of Nav1.7 potency:Nav 1.5 potency” value in assay [2] stood at 175.

For `CC1(C)CN2CCCC2(CNc2ccc(S(=O)(=O)Nc3nccs3)cc2C(F)(F)F)C1` (single isomer, unassigned) [Ex8-23-B, (S or R) 4-(((2,2-dimethylhexahydro-1H-pyrrolizin-7a-yl)methyl)amino)-N-(thiazol-2-yl)-3-(trifluoromethyl)-benzenesulfonamide], the IC50 in assay [1] amounted to 31 nM. Also, the “ratio of Nav1.7 potency:Nav 1.5 potency” value in assay [2] amounted to 981.

Consider `O=S(=O)(Nc1ncc(F)s1)c1cc(Cl)c(NCC23CCCN2CC(F)C3)cc1F` (single isomer, unassigned) [Ex9-10-A, 5-chloro-2-fluoro-4-((((2R,7aS or 2S,7aR)-2-fluoro-hexahydro-1H-pyrrolizin-7a-yl)-methyl)amino)-N-(5-fluorothiazol-2-yl)-benzenesulfonamide], for which, in assay [1], the IC50 stood at 148 nM. Further, in assay [2], the “ratio of Nav1.7 potency:Nav 1.5 potency” value was 137.

On to `O=S(=O)(Nc1ncc(F)s1)c1cc(Cl)c(NCC23CCCN2CC(F)C3)cc1F` (single isomer, unassigned) [Ex9-10-B, 5-chloro-2-fluoro-4-((((2S,7aR or 2R,7aS)-2-fluoro-hexahydro-1H-pyrrolizin-7a-yl)-methyl)amino)-N-(5-fluorothiazol-2-yl)-benzenesulfonamide], for which the IC50 in assay [1] came out at 58 nM. Further, the “ratio of Nav1.7 potency:Nav 1.5 potency” value in assay [2] came to 122.

For the molecule `O=S(=O)(Nc1ncc(F)s1)c1ccc(NCC23CCCN2CC(F)C3)c(C(F)(F)F)c1` (single isomer, unassigned) [Ex9-12-A, 4-((((2R,7aS or 2S,7aR)-2-fluoro-hexahydro-1H-pyrrolizin-7a-yl)-methyl)amino)-N-(5-fluorothiazol-2-yl)-3-(trifluoromethyl)-benzenesulfonamide], the IC50 in assay [1] was determined as 89 nM. For the same molecule, in assay [2], the “ratio of Nav1.7 potency:Nav 1.5 potency” value stood at 338.

In the case of `O=S(=O)(Nc1ncc(F)s1)c1ccc(NCC23CCCN2CC(F)C3)c(C(F)(F)F)c1` (single isomer, unassigned) [Ex9-12-B, 4-((((2S,7aR or 2R,7aS)-2-fluoro-hexahydro-1H-pyrrolizin-7a-yl)methyl)amino)-N-(5-fluorothiazol-2-yl)-3-(trifluoromethyl)-benzenesulfonamide], the IC50 in assay [1] is 80 nM. In addition, in assay [2], the “ratio of Nav1.7 potency:Nav 1.5 potency” value is reported as 300.

For `O=S(=O)(Nc1ncc(F)s1)c1ccc(NCC23CCCN2CC(F)C3)c(Cl)c1` (single isomer, unassigned) [Ex9-14-A, 3-chloro-4-((((2R,7aS or 2S,7aR)-2-fluoro-hexahydro-1H-pyrrolizin-7a-yl)-methyl)amino)-N-(5-fluorothiazol-2-yl)-benzenesulfonamide], the IC50 in assay [1] was determined as 144 nM. The “ratio of Nav1.7 potency:Nav 1.5 potency” value in assay [2] worked out at 208.

On to `O=S(=O)(Nc1ncc(F)s1)c1ccc(NCC23CCCN2CC(F)C3)c(Cl)c1` (single isomer, unassigned) [Ex9-14-B, 3-chloro-4-((((2S,7aR or 2R,7aS)-2-fluoro-hexahydro-1H-pyrrolizin-7a-yl)methyl)amino)-N-(5-fluorothiazol-2-yl)-benzenesulfonamide], for which the IC50 in assay [1] turned out to be 176 nM. The “ratio of Nav1.7 potency:Nav 1.5 potency” value in assay [2] came to 171.

Turning to `O=S(=O)(Nc1nccs1)c1cc(Cl)c(NC[C@]23CCCN2CC2(C3)OCCO2)cc1F` (single isomer, unassigned) [Ex10-7-A], the IC50 in assay [1] came to 10 nM. In addition, the “ratio of Nav1.7 potency:Nav 1.5 potency” value in assay [2] was 3074.

For `O=S(=O)(Nc1nccs1)c1cc(Cl)c(NC[C@@]23CCCN2CC2(C3)OCCO2)cc1F` (single isomer, unassigned) [Ex10-7-B], the IC50 in assay [1] amounted to 32 nM. Further, the “ratio of Nav1.7 potency:Nav 1.5 potency” value in assay [2] is 935.

Regarding `CC1CN2CCCC2(CNc2cc(F)c(S(=O)(=O)Nc3nccs3)cc2Cl)C1` [Ex4-9, 5-chloro-2-fluoro-4-{[((2S,7aR and 2R,7aS)-2-methyl-tetrahydro-1H-pyrrolizin-7a(5H)-yl)methyl]amino}-N-(1,3-thiazol-2-yl)-benzenesulfonamide], in assay [1], the IC50 was found to be 9 nM.
